Assay results published in ChEMBL document CHEMBL1681780, “A rational approach for the design and synthesis of 1-acetyl-3,5-diaryl-4,5-dihydro(1H)pyrazoles as a new class of potential non-purine xanthine oxidase inhibitors” (Bioorg Med Chem, 2011).

Target: Xanthine dehydrogenase/oxidase (Bos taurus, UniProt P80457)
Assay: Inhibition of bovine Xanthine oxidase assessed as decrease in uric acid production preincubated […] for 5 mins by spectrophotometry

Sequence of Xanthine dehydrogenase/oxidase (P80457 whole entry): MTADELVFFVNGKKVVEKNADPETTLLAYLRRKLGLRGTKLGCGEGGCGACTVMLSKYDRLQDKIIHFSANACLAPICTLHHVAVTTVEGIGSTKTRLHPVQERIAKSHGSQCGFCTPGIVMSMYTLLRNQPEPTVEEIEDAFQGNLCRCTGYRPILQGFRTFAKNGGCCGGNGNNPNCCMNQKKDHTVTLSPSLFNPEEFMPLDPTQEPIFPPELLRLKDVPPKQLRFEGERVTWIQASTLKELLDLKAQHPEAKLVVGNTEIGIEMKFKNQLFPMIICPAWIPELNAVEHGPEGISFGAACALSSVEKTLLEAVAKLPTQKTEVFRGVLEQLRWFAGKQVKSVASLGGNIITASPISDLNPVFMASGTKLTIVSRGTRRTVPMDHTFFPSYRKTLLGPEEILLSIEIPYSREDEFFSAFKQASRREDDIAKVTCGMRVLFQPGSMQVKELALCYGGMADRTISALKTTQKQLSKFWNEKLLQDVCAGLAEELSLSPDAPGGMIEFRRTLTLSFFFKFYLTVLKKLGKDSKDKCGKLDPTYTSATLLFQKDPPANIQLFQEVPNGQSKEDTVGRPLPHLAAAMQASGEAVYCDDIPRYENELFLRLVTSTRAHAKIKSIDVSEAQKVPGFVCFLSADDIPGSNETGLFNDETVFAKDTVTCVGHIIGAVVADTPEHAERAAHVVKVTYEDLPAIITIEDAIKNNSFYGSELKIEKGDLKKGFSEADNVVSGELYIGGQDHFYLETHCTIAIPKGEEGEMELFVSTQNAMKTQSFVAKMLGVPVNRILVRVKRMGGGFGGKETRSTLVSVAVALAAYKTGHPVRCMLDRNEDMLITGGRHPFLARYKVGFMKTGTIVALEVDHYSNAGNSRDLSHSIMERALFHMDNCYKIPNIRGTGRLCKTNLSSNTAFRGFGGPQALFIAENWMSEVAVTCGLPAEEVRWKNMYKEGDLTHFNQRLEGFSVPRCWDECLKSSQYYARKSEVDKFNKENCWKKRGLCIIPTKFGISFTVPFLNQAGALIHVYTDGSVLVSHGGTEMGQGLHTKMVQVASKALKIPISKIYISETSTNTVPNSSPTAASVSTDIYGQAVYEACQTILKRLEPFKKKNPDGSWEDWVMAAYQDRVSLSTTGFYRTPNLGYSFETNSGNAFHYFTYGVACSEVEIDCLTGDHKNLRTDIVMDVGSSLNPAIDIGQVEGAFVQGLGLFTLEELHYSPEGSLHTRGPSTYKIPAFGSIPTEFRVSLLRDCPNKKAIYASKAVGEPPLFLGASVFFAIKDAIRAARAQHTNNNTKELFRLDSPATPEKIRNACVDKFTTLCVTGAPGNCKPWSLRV

Row | SMILES | IC50
1 | COc1ccc(C2CC(c3ccccc3)=NN2C(C)=O)cc1 (stereo not drawn) | 76.2 µM
2 | COc1ccc(C2CC(c3ccc(Br)cc3)=NN2C(C)=O)cc1 (stereo not drawn) | 66.5 µM
3 | CC(=O)N1N=C(c2ccc(Br)cc2)CC1c1ccccc1 (stereo not drawn) | 71.3 µM
4 | COc1cc(C2CC(c3ccc(Br)cc3)=NN2C(C)=O)cc(OC)c1OC (stereo not drawn) | 74.9 µM
5 | CC(=O)N1N=C(c2ccco2)CC1c1ccc(C)cc1 (stereo not drawn) | 19.2 µM
6 | CC(=O)N1N=C(c2ccco2)CC1c1ccc(Br)cc1 (stereo not drawn) | 17.6 µM
7 | CC(=O)N1N=C(c2ccccc2)CC1c1ccc2c(c1)OCO2 (stereo not drawn) | 70.8 µM
8 | CC(=O)N1N=C(c2ccco2)CC1c1ccc2ccccc2c1 (stereo not drawn) | 91.4 µM
9 | CC(=O)N1N=C(c2ccccc2)CC1c1ccc(N(C)C)cc1 (stereo not drawn) | 73.6 µM
10 | CC(=O)N1N=C(c2ccccc2)CC1c1cccc(Cl)c1Cl (stereo not drawn) | 55.1 µM
11 | COc1cc(C2CC(c3ccccc3)=NN2C(C)=O)ccc1O (stereo not drawn) | 81.2 µM
12 | COc1cc(C2CC(c3ccccc3)=NN2C(C)=O)cc(OC)c1OC (stereo not drawn) | 86.4 µM
13 | COc1ccc(C2CC(c3ccc(Br)cc3)=NN2C(C)=O)cc1OC (stereo not drawn) | 64.1 µM
14 | CC(=O)N1N=C(c2ccc(Br)cc2)CC1c1cccc(Cl)c1Cl (stereo not drawn) | 51.7 µM
15 | CC(=O)N1N=C(c2ccc(Br)cc2)CC1c1ccc2c(c1)OCO2 (stereo not drawn) | 66.3 µM
16 | CC(=O)N1N=C(c2cccc([N+](=O)[O-])c2)CC1c1ccccc1 (stereo not drawn) | 79.1 µM
17 | COc1ccc(C2CC(c3cccc([N+](=O)[O-])c3)=NN2C(C)=O)cc1 (stereo not drawn) | 73.3 µM
18 | COc1ccc(C2CC(c3cccc([N+](=O)[O-])c3)=NN2C(C)=O)cc1OC (stereo not drawn) | 75.2 µM
19 | CC(=O)N1N=C(c2cccc([N+](=O)[O-])c2)CC1c1cccc(Cl)c1Cl (stereo not drawn) | 58 µM
20 | CC(=O)N1N=C(c2cccc([N+](=O)[O-])c2)CC1c1ccc2c(c1)OCO2 (stereo not drawn) | 76.1 µM
21 | CC(=O)N1N=C(c2cccc3ccccc23)CC1c1ccccc1 (stereo not drawn) | 41.3 µM
22 | CC(=O)N1N=C(c2cccc3ccccc23)CC1c1ccc([N+](=O)[O-])cc1 (stereo not drawn) | 32.2 µM
23 | CC(=O)N1N=C(c2cccc3ccccc23)CC1c1cccc([N+](=O)[O-])c1 (stereo not drawn) | 36.4 µM
24 | COc1ccc(C2CC(c3cccc4ccccc34)=NN2C(C)=O)cc1 (stereo not drawn) | 43.5 µM
25 | CC(=O)N1N=C(c2cccc3ccccc23)CC1c1cccc(Br)c1 (stereo not drawn) | 38.7 µM
26 | CC(=O)N1N=C(c2cccc3ccccc23)CC1c1ccccc1[N+](=O)[O-] (stereo not drawn) | 37.2 µM
27 | COc1ccc(OC)c(C2CC(c3cccc4ccccc34)=NN2C(C)=O)c1 (stereo not drawn) | 44.8 µM

Row | SMILES | IC50
28 | COc1ccc(C2CC(c3cccc4ccccc34)=NN2C(C)=O)cc1OC (stereo not drawn) | 45.6 µM
29 | COc1cc(C2CC(c3cccc4ccccc34)=NN2C(C)=O)cc(OC)c1OC (stereo not drawn) | 49.5 µM
30 | COc1cc(OC)c(C2CC(c3cccc4ccccc34)=NN2C(C)=O)cc1OC (stereo not drawn) | 46.2 µM
31 | COc1cc(C2CC(c3cccc4ccccc34)=NN2C(C)=O)ccc1O (stereo not drawn) | 45.7 µM
32 | CC(=O)N1N=C(c2cccc3ccccc23)CC1c1cccc(Cl)c1Cl (stereo not drawn) | 34.2 µM
33 | CC(=O)N1N=C(c2cccc3ccccc23)CC1c1ccc2c(c1)OCO2 (stereo not drawn) | 47 µM
34 | CC(=O)N1N=C(c2cccc3ccccc23)CC1c1ccc2ccccc2c1 (stereo not drawn) | > 100 µM
35 | CC(=O)N1N=C(c2ccco2)CC1c1ccccc1 (stereo not drawn) | 26.4 µM
36 | CC(=O)N1N=C(c2ccco2)CC1c1ccccc1[N+](=O)[O-] (stereo not drawn) | 14.2 µM
37 | CC(=O)N1N=C(c2ccco2)CC1c1cccc([N+](=O)[O-])c1 (stereo not drawn) | 13.1 µM
38 | CC(=O)N1N=C(c2ccco2)CC1c1cccc(O)c1 (stereo not drawn) | 27.2 µM
39 | CC(=O)N1N=C(c2ccco2)CC1c1ccc([N+](=O)[O-])cc1 (stereo not drawn) | 12.4 µM
40 | CC(=O)N1N=C(c2ccco2)CC1c1ccc(Cl)cc1 (stereo not drawn) | 15.2 µM
41 | COc1ccc(C2CC(c3ccco3)=NN2C(C)=O)cc1 (stereo not drawn) | 21.3 µM
42 | CC(=O)N1N=C(c2ccco2)CC1c1ccc(N(C)C)cc1 (stereo not drawn) | 23 µM
43 | COc1ccc(OC)c(C2CC(c3ccco3)=NN2C(C)=O)c1 (stereo not drawn) | 27.3 µM
44 | COc1cc(C2CC(c3ccco3)=NN2C(C)=O)cc(OC)c1OC (stereo not drawn) | 28.7 µM
45 | COc1ccc(C2CC(c3ccco3)=NN2C(C)=O)cc1OC (stereo not drawn) | 29.4 µM
46 | COc1cc(OC)c(C2CC(c3ccco3)=NN2C(C)=O)cc1OC (stereo not drawn) | 30.2 µM
47 | COc1cc(C2CC(c3ccco3)=NN2C(C)=O)ccc1O (stereo not drawn) | 26.8 µM
48 | CC(=O)N1N=C(c2ccco2)CC1c1cccc(Cl)c1Cl (stereo not drawn) | 14.8 µM
49 | CC(=O)N1N=C(c2ccco2)CC1c1ccc2c(c1)OCO2 (stereo not drawn) | 28.1 µM
50 | CC(=O)N1N=C(c2ccco2)CC1c1ccncc1 (stereo not drawn) | 5.3 µM
51 | c1ccc(C2=NNC(c3ccccc3)C2)cc1 (stereo not drawn) | > 100 µM
52 | CC(=O)N1N=C(c2ccccc2)CC1c1ccccc1 (stereo not drawn) | 61.4 µM
53 | COc1ccc(C2CC(c3ccccc3)=NN2C(C)=O)cc1OC (stereo not drawn) | 83.7 µM
